From the AptaBench aptamer set (doi:10.1093/nar/gkaf219)
One block for each compound: values may come before it.

Tests used:
Conditions in all cases: 10 mM Tris-HCl, pH 7.4
[1] = tested on: DNA aptamer or structured DNA GGGACGACGGGGATTCGCGGATTCATAGAAAAGGGCTCGTCCGTCGTCCC
[2] = tested on: DNA aptamer or structured DNA GGGACGACGGGATGTGGTGTCAGTCATGATGGGATCAAGTCGTCCC
[3] = tested on: DNA aptamer or structured DNA CTTACGACATCTGCGTGTGGCCGGTGTGAGGGAGGGATGTCGTAAG
[4] = tested on: DNA aptamer or structured DNA GGGACGACGCGTACCTGTGGTAGTCGTACGTCGTTCAAGTCGTCCC
[5] = tested on: DNA aptamer or structured DNA GGGACGACGCGTACCTGTGGTAGTTGTACGTCGTTCAAGTCGTCCC
[6] = tested on: DNA aptamer or structured DNA GGGACGACGGGGATTCGGTTCGTCATTTGGCAGTGCCTCGTACGTCGTCCC
Wherever binding call is given: call rule not given here.

Structure (SMILES): NCCc1c[nH]c2ccc(O)cc12
- binding call [1]: no binding

Structure (SMILES): COc1ccc2c3c1O[C@H]1C(=O)CC[C@@]4(O)[C@@H](C2)N(C)CC[C@]314
- Kd [2]: 3.65 µM

Structure (SMILES): CC(=O)Oc1ccc2c3c1O[C@H]1[C@@H](OC(C)=O)C=C[C@H]4[C@@H](C2)N(C)CC[C@@]341
- binding call [3]: binds
- Kd [4]: 4.52 µM
- Kd [5]: 4.13 µM

- binding call [1]: no binding
- binding call [6]: no binding
Structure (SMILES): NCCc1ccc(O)c(O)c1

Structure (SMILES): CN1CC[C@]23c4c5ccc(O)c4O[C@H]2[C@@H](O)C=C[C@H]3[C@H]1C5
- Kd [1]: 2500 nM
- Kd [6]: 1500 nM

Structure (SMILES): CN[C@@H](C)Cc1ccccc1
- binding call [3]: binds

- binding call [5]: no binding
Structure (SMILES): c1ccc([C@H]2CN3CCSC3=N2)cc1

Structure (SMILES): CN[C@@H](C)[C@@H](O)c1ccccc1
- binding call [3]: binds

Structure (SMILES): O=C1CC[C@@]2(O)[C@H]3Cc4ccc(O)c5c4[C@@]2(CCN3CC2CC2)[C@H]1O5
- binding call [4]: no binding
- binding call [5]: no binding

Structure (SMILES): Cc1nnc2n1-c1ccc(Cl)cc1C(c1ccccc1)=NC2
- binding call [5]: no binding

- binding call [3]: no binding
Structure (SMILES): Cn1c(=O)c2c(ncn2C)n(C)c1=O

- binding call [3]: binds
- binding call [4]: no binding
- binding call [1]: no binding
- binding call [6]: no binding
Structure (SMILES): CCN(CC)CCOC(=O)c1ccc(N)cc1

- binding call [6]: no binding
Structure (SMILES): NCC(O)c1ccc(O)c(O)c1 (stereo unspecified)

Structure (SMILES): C=CCN1CC[C@]23c4c5ccc(O)c4O[C@H]2C(=O)CC[C@@]3(O)[C@H]1C5
- binding call [4]: no binding
- binding call [5]: no binding

- binding call [6]: no binding
Structure (SMILES): CCN(CC)CC(=O)Nc1c(C)cccc1C

- binding call [4]: no binding
- binding call [2]: no binding
Structure (SMILES): CC(=O)Nc1ccc(O)cc1
